Test results from US11938103B2, “Potentiation of helminth treatment” (Elanco Tiergesundheit AG, priority 2018, dated 2024).

Key:
[1] = system: Fasciola hepatica; details: cited from earlier work
[2] = system: Fasciola hepatica (immature stage); assay: Efficacy against immature stage F. hepatica infection in sheep (Example 2); type: in vivo; details: single oral dose day 42, livers day 91, diamphenethide 40 mg/kg, clorsulon 3.5 mg/kg, combination 40 and 3.5 mg/kg; for % Efficacy using Arithmetic mean / % Efficacy using Geometric Mean: vs untreated control
Experimental: In the following examples, all animals were confirmed free of infection with F. hepatica and found clinically healthy by a veterinarian prior to enrollment in the study. Doses were administered orally from suitably sized disposable syringes. […] Differences between treatment groups were analyzed by analysis of variance methods (ANOVA), as the assumptions of normal distribution were satisfied for log-transformed fluke count and log-transformed bodyweight, as well as for (untransformed) fluke measurements. Arithmetic […]), geometric […]), median and ranges were summarized for fluke counts, fluke measurements and bodyweight. A constant of one was applied for calculation of geometric means of fluke counts. […] On day 0, the sheep were experimentally infected with a target of 200 “Sunny Corner” (laboratory strain reference […]. hepatica […]. The required number of […] prepared for infection in a water and 4% carboxymethylcellulose solution. Each infective dose was followed by water administered orally. Syringes were subsequently checked post-infection for retained […] was determined that the sheep were administered between 93.5% and 100% (98.3% on average) of the target infective dose. The sheep were randomized into treatment groups on the basis of day 41 body weight and allocated to groups as denoted in Table 2.1. Body weight was determined one day prior to treatments, which were measured by volume and rounded to the nearest 0.1 mL. On day 42, and before feeding, the individual animals were treated once only with the Treatment in Table 2.1. Once the animals had been treated they were returned to their pens and fed within one hour. Untreated control animals were also fed at this time. The liver with gall bladder and common bile duct intact were recovered on day 91 from each animal and processed for F. hepatica counts. The assessment of efficacy was based on the number of live fluke removed from the liver. An ANOVA model was used to compare fluke counts between treatment groups. The model was applied to the log-transformed counts. There was one fixed effect, treatment group.

[3] = system: Fasciola hepatica (early immature stage); assay: Efficacy against early immature stage F. hepatica infection in sheep (Example 3); type: in vivo; details: single oral dose day 14, livers day 91, diamphenethide 20 mg/kg, clorsulon 10 mg/kg, combination 20 and 10 mg/kg; for % Efficacy using Arithmetic mean / % Efficacy using Geometric Mean: vs untreated control
Experimental: (§1) Doses were administered orally from suitably sized disposable syringes.
(§2) The fluke counts and body weights were log-transformed (after adding a constant of 1 to the fluke counts only) and the distribution of the transformed data checked to see if they satisfied the assumption of normal distribution.
(§3) Arithmetic means (Amean), geometric means (Gmean), median and ranges were summarized for fluke counts, fluke measurements and bodyweight. A constant of one was applied for calculation of geometric means of fluke counts.
(§4) The percentage efficacy for each treated group was calculated as follows: % Efficacy=100×(FCC−FCT)/FCC where FCC is the arithmetic mean fluke count of the control group and FCT is the arithmetic mean fluke count of the treated group. The formula was also applied using mean geometric fluke counts; these were calculated using log transformed data with 1 added as a constant to each fluke count and then subtracted following transformation.
(§5) Note that expected synergy is defined as: 1−Efficacy(expected without synergy)=(1−EfficacyD)×(1−EfficacyC).
This study was to assess the efficacy of diamphenethide (20 mg/kg) given concurrently with clorsulon (10 mg/kg), diamphenethide alone (20 mg/kg), and clorsulon alone (10 mg/kg) against F. hepatica in sheep with treatment on day 14. This was a controlled, blinded, randomized study using sheep.
On day 0, the sheep were experimentally infected with a target of 200 “Sunny Corner” (laboratory strain reference Fashep-66) F. hepatica metacercariae. The required number of metacercariae were prepared for infection in a water and 2% carboxymethylcellulose solution. Each infective dose was followed by water administered orally.
The sheep were randomized into treatment groups on the basis of day 13 body weight and allocated to groups as denoted in Table 3.1. Animals were treated on day 14 with a single dose as noted in Table 3.1.
Body weight was determined one day prior to treatments, which were measured by volume and rounded to the nearest 0.1 mL. On day 14, and before feeding, the individual animals were treated once only with the Treatment in Table 3.1. […] Untreated control animals were also fed at this time.
The liver with gall bladder and common bile duct intact were recovered on day 91 from each animal and processed for F. hepatica counts. The assessment of efficacy was based on the number of live fluke removed from the liver.
An ANOVA model was used to compare fluke counts between treatment groups. The model was applied to the log-transformed counts. There was one fixed effect, treatment group.

[4] = system: Fasciola hepatica (immature stage); assay: Efficacy against immature stage F. hepatica infection in cattle (Example 4); type: in vivo; details: single oral dose day 49, livers day 91 or 92, diamphenethide 60 mg/kg, clorsulon 5 mg/kg, combination 60 and 5 mg/kg; for % Efficacy using Arithmetic mean / % Efficacy using Geometric Mean: vs untreated control
Experimental: as §1, §2, §3, §4, §5
This study was to assess the efficacy of diamphenethide (60 mg/kg) given concurrently with clorsulon (5 mg/kg), diamphenethide alone (60 mg/kg), and clorsulon alone (5 mg/kg) against F. hepatica in cattle with treatment on day 49. This was a controlled, blinded, randomized study.
(§6) On day 0, the calves were experimentally infected with a single isolate of approximately 382 Sunny Corner (Fashep-66) isolate F. hepatica metacercariae. The required number of metacerceriae were made up in 2% carboxymethyl cellulose. Syringes were checked post-infection for retained metacerceriae. The infection was administered orally and each infective dose was followed by water administered orally. The cattle were randomized into treatment groups on the basis of day 48 body weight and allocated to groups as denoted in Table 4.1.
Body weight was determined one day prior to treatment. All treatments were measured by volume and rounded to the nearest 0.1 mL. On day 49, and before feeding, the individual animals were treated once only with the treatment in Table 4.1. […] Untreated control animals were also fed at this time.
(§7) The liver with gall bladder and bile ducts intact were recovered from each animal on day 91 or 92 and processed for F. hepatica counts. The assessment of efficacy was based on the number of live fluke removed from the liver.

[5] = system: Fasciola hepatica (early immature stage); assay: Efficacy against early immature stage F. hepatica infection in cattle (Example 5); type: in vivo; details: single oral dose day 21, livers day 91 or 92, diamphenethide 40 mg/kg, clorsulon 7 mg/kg, combination 40 and 7 mg/kg; for % Efficacy using Arithmetic mean / % Efficacy using Geometric Mean: vs untreated control
Experimental: as §1, §2, §3, §4, §5
This study was to assess the efficacy of diamphenethide (40 mg/kg) given concurrently with clorsulon (7 mg/kg), diamphenethide alone (40 mg/kg), and clorsulon alone (7 mg/kg) against F. hepatica in cattle with treatment on day 21. This was a controlled, blinded, randomized study.
as §6, with “350” for “382”, “20” for “48”, “5.1.” for “4.1.”
Body weight was determined one day prior to treatment. All treatments were measured by volume and rounded to the nearest 0.1 mL. On day 21, and before feeding, the individual animals were treated once only with the treatment in Table […]. […] Untreated control animals were also fed at this time.
as §7

[6] = system: liver flukes; details: cited from earlier work
[7] = deacylation to DAMD; cited from earlier work

Structure (SMILES) | Fluke Count, Arithmetic mean [2] | Fluke Count, Geometric Mean [2] | % Efficacy using Arithmetic mean [2] | % Efficacy using Geometric Mean [2] | Fluke Count, Arithmetic mean [3] | Fluke Count, Geometric Mean [3] | % Efficacy using Arithmetic mean [3] | % Efficacy using Geometric Mean [3] | Fluke Count, Arithmetic mean [4] | Fluke Count, Geometric Mean [4] | % Efficacy using Arithmetic mean [4] | % Efficacy using Geometric Mean [4] | Fluke Count, Arithmetic mean [5] | Fluke Count, Geometric Mean [5] | % Efficacy using Arithmetic mean [5] | % Efficacy using Geometric Mean [5] | also measured
O=C(Nc1ccc(Oc2ccc(Cl)cc2)c(Cl)c1)c1cc(I)cc(I)c1O [rafoxanide] | – | – | – | – | – | – | – | – | – | – | – | – | – | – | – | – | Isolates showing resistance at recommended doses ([1]; ten of seventeen F. hepatica isolates from different geographical regions): 58.8%
CC(=O)Nc1ccc(OCCOCCOc2ccc(NC(C)=O)cc2)cc1 [Diamphenethide, N-[4-[2-[2-(4-acetamidophenoxy)ethoxy]ethoxy]phenyl]acetamide] | 57.6 | 50.9 | 36.1% | 41.5% | 89.0 | 87.5 | 40.0% | 36.3% | 73.8 | 61.8 | 12.1% | 26.0% | 54.2 | 53.1 | 30.7% | 27.5% | Effectiveness against early immature flukes ([6]; early immature flukes up to 6 weeks of age): highly effective; Activity against flukes as they develop to maturity ([6]; flukes developing to maturity): progressively lower activity; Metabolism [7]: rapidly metabolized by deacylation
Nc1cc(C(Cl)=C(Cl)Cl)c(S(N)(=O)=O)cc1S(N)(=O)=O [Clorsulon, 4-amino-6-(1,2,2-trichloroethenyl)benzene-1,3-disulfonamide] | 81.8 | 79.7 | 9.3% | 8.4% | 99.8 | 90.6 | 28.2% | 34.0% | 72.6 | 70.7 | 13.6% | 15.3% | 45.2 | 42.4 | 42.2% | 42.1% | Effectiveness by host species ([6]; cattle versus sheep): more effective in cattle than in sheep; Effectiveness against mature flukes ([6]; mature flukes): effective against mature flukes
Cc1cc(C(C#N)c2ccc(Cl)cc2)c(Cl)cc1NC(=O)c1cc(I)cc(I)c1O (stereo not drawn) [closantel] | – | – | – | – | – | – | – | – | – | – | – | – | – | – | – | – | Side resistance in rafoxanide-resistant F. hepatica isolates ([1]; F. hepatica isolates, New South Wales): side resistance to closantel was evident
